Laboratory results reported in patent publication US11912645B2, “Lipopeptide compounds for the treatment of pain disorders” (INSERM (Institut National de la Santé et de la Recherche …, priority 2017, dated 2024).

Tests used:
Caco-2 cells = assay: Absorption across Caco-2 monolayer in transwell chambers; format: in vitro ADME, human; details: 800 ng apical
Protocol: FIG. 5: C12-Asn-GABA crosses the epithelial barrier without modifying epithelial cells physiology. Caco-2 cells were cultivated into transwell chambers. After treatment with C12-Asn-GABA (800 ng) at the apical side, C12-Asn-GABA was quantified inside the cells and both the apical and basolateral compartments by LC-MS/MS (A); data are represented as mean±SEM, n=3 experiments of 3 wells per condition. Extracted ion chromatogram at the exact mass of GABA (104.0702 m/z) with a mass accuracy of 5 ppm of the GABA commercial standard (GABA (Std.) and apical and basolateral compartments after loading or not Caco-2 cells with 800 ng of GABA at the apical site (B); representation of one well, n=3 experiments of 3 wells per condition. Paracellular permeability assessed by the passage of FITC-dextran loaded at the apical side (C) and CXCL8 secretion assessed by ELISA (D) were monitored after treatment of Caco-2 cells at the apical side with C12-Asn-GABA (10 μM); data are represented as mean±SEM, n=3 experiments of 3 wells per condition. […]
Caco-2 cells were grown in Glutamax DMEM (Gibco, Invitrogen life technologies, Paisley, UK) supplemented with 10% heat-inactivated fetal bovine serum (FBS) (Gibco, Invitrogen life technologies, Paisley, UK), 1% nonessential amino acids and 1% antibiotics (100 U/ml penicillin and […] streptomycin (Gibco, Invitrogen life technologies, Grand Island, N.Y., USA) at 37° C. in a 5% C02 water-saturated atmosphere. Cells were seeded on Transwell inserts (Costar, Sigma-Aldrich, Saint-Quentin Fallavier, France) and absorption studies of C12-Asn-GABA and GABA were performed 16 days later. These compounds were quantified by LC-MS/MS in both apical and basolateral chambers as well as in cells. The effect of C12-Asn-GABA (1-100 μM) on paracellular permeability was also measured by mucosal-to-serosal flux of 4 kDa Fluorescein Isothiocyanate (FITC)-labelled dextran as previously described^31. […]
The initial barrier for any drug absorption is the intestinal epithelial cell wall. […] The transport of GABA alone across the cell monolayer was also assessed. […]

duodenal preparations = assay: Ex vivo duodenal mechanical contraction (isotonic sensors); set-up: species or system mouse; details: 10 μM, vs control and vehicle
Protocol: FIG. 6: C12-Asn-GABA inhibits capsaicin-induced visceral hypersensitivity without altering Intestinal contraction. Mice received intracolonic administration of C12-Asn-GABA (10 μM; black symbols) or vehicle (40% ethanol; white symbols) and 30 minutes or 4 hours later colon (A) and blood (B) were harvested in order to quantify C12-Asn-GABA by LC-MS/MS. Data are expressed as mean±SEM, n=8 mice per group. […] Mice received intracolonic administration of C12-Asn-GABA (10 μM; black symbols) or vehicle (40% ethanol; white symbols) and 30 minutes or 4 hours later an intracolonic administration of capsaicin (100 μg/mouse; square) or its vehicle (40% ethanol; circle). Fifteen minutes after capsaicin or vehicle treatment, visceromotor response (VMR) to increasing pressures of colorectal distension was performed. Data are expressed as mean±SEM, n=7-8 mice per group. […] Ex vivo measurement of duodenal mechanical contraction frequency (B) and amplitude (C) in response to Krebs-Ringer solution (control; white bar), to DMSO 0.2% (vehicle; gray bar) or to C12-Asn-GABA (10 μM; black bar). Data are expressed as mean±SEM, n=5-6 per group. […]
IBS patients are characterized by diverse alterations of gut transit: diarrhea, constipation or mixed^1, thus a drug impairing bowel motility could limit its putative use in this pathology. We evaluated whether C12-Asn-GABA was capable of impairing duodenal motility. […]

CCCCCCCCCCCC(=O)NC(CC(N)=O)C(=O)NCCCC(=O)O (stereo not shown) [C12-Asn-GABA, C11 C(O)-Asn-gamma-aminobutyric acid]
fraction of apically added compound found in the basolateral chamber (Caco-2 cells; 24 h, LC-MS/MS): approximately 50% | level in epithelial cells (Caco-2 cells; 24 h of incubation): low levels | amplitude of intestinal contractions (duodenal preparations): nor the amplitude of intestinal contractions | frequency of duodenal contractions (duodenal preparations): impairs neither the frequency of contractions
